In patent US8048825B2, “Haloalkylsulfonanilide derivatives or salt thereof, herbicide comprising the derivatives as active ingredient, and use of the herbicide” (Nihon Nohyaku Co., Ltd., priority 2006, dated 2011):

What was measured:
Format in all cases: in vivo
Lindernia procumbens [1] = assay: Herbicidal efficacy on paddy field weeds of pre-emergence stage (Pre), Test Example 1; conditions: 1000 g/ha as active ingredient, examined after 21 days
Method in brief: (§1)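 Clay-loam pots sown with Scirpus juncoides, covered with soil containing Lindernia procumbens seed, flooded to 5 cm. Next day formulated compound applied dropwise to water at 1000 g/ha a.i. Greenhouse-grown; growth inhibition versus untreated scored 0–5 after 21 days.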

Scirpus juncoides [2] = assay: as above; conditions: 1000 g/ha as active ingredient, examined after 21 days
Method in brief: as §1

Echinochloa crus-galli = assay: Herbicidal effect on paddy field weeds of post-emergence stage (Post), Test Example 2; conditions: one-leaf stage, 1000 g/ha as active ingredient, examined after 21 days
Method in brief: (§2)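 Scirpus juncoides and Echinochloa crus-galli sown in clay loam, with Lindernia procumbens seed in the soil cover, under 5 cm flooding in greenhouse. At one-leaf stage, 1000 g/ha active ingredient applied to pot water. Efficacy scored visually 0–5 against untreated plants at 21 days after treatment.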

Lindernia procumbens [3] = assay: as above; conditions: one-leaf stage, 1000 g/ha as active ingredient, examined after 21 days
Method in brief: as §2

Scirpus juncoides [4] = assay: as above; conditions: one-leaf stage, 1000 g/ha as active ingredient, examined after 21 days
Method in brief: as §2

| Structure (SMILES) | Lindernia procumbens pre (herbicidal effect) (Lindernia procumbens [1]) | Scirpus juncoides pre (herbicidal effect) (Scirpus juncoides [2]) | Echinochloa crus-galli post (herbicidal effect) (Echinochloa crus-galli) | Lindernia procumbens post (herbicidal effect) (Lindernia procumbens [3]) | Scirpus juncoides post (herbicidal effect) (Scirpus juncoides [4]) |
| --- | --- | --- | --- | --- | --- |
| CC(C)COC(=O)N(c1ccccc1CN1CC(C)(C)COC1=S)S(=O)(=O)C(F)(F)F [Compound 1-39] | 4 (90%-99% herbicidal effect, phytotoxicity) | 4 (90%-99% herbicidal effect, phytotoxicity) | 4 (90%-99% herbicidal effect, phytotoxicity) | 4 (90%-99% herbicidal effect, phytotoxicity) | 4 (90%-99% herbicidal effect, phytotoxicity) |
| CC1(C)CCN(Cc2ccccc2NS(=O)(=O)C(F)(F)F)C(=O)O1 [Compound 1-45] | 4 (90%-99% herbicidal effect, phytotoxicity) | 4 (90%-99% herbicidal effect, phytotoxicity) | 4 (90%-99% herbicidal effect, phytotoxicity) | 4 (90%-99% herbicidal effect, phytotoxicity) | 4 (90%-99% herbicidal effect, phytotoxicity) |
| CCOC(=O)N(c1ccccc1CN1CCC(C)(C)OC1=O)S(=O)(=O)C(F)(F)F [Compound 1-47] | 4 (90%-99% herbicidal effect, phytotoxicity) | 4 (90%-99% herbicidal effect, phytotoxicity) | 4 (90%-99% herbicidal effect, phytotoxicity) | 4 (90%-99% herbicidal effect, phytotoxicity) | 4 (90%-99% herbicidal effect, phytotoxicity) |
| CC(C)COC(=O)N(c1ccccc1CN1CCC(C)(C)OC1=O)S(=O)(=O)C(F)(F)F [Compound 1-50] | 4 (90%-99% herbicidal effect, phytotoxicity) | 4 (90%-99% herbicidal effect, phytotoxicity) | 4 (90%-99% herbicidal effect, phytotoxicity) | 4 (90%-99% herbicidal effect, phytotoxicity) | 4 (90%-99% herbicidal effect, phytotoxicity) |
| CC(C)(C)COC(=O)N(c1ccccc1CN1CCC(C)(C)OC1=O)S(=O)(=O)C(F)(F)F [Compound 1-51] | 4 (90%-99% herbicidal effect, phytotoxicity) | 4 (90%-99% herbicidal effect, phytotoxicity) | 4 (90%-99% herbicidal effect, phytotoxicity) | 4 (90%-99% herbicidal effect, phytotoxicity) | 4 (90%-99% herbicidal effect, phytotoxicity) |
| CCCCCOC(=O)N(c1ccccc1CN1CCC(C)(C)OC1=O)S(=O)(=O)C(F)(F)F [Compound 1-52] | 4 (90%-99% herbicidal effect, phytotoxicity) | 4 (90%-99% herbicidal effect, phytotoxicity) | 4 (90%-99% herbicidal effect, phytotoxicity) | 4 (90%-99% herbicidal effect, phytotoxicity) | 4 (90%-99% herbicidal effect, phytotoxicity) |
| COCN(c1ccccc1CN1CCC(C)(C)OC1=O)S(=O)(=O)C(F)(F)F [Compound 1-55] | 4 (90%-99% herbicidal effect, phytotoxicity) | 4 (90%-99% herbicidal effect, phytotoxicity) | 4 (90%-99% herbicidal effect, phytotoxicity) | 4 (90%-99% herbicidal effect, phytotoxicity) | 4 (90%-99% herbicidal effect, phytotoxicity) |
| CC1(C)CCN(Cc2ccccc2NS(=O)(=O)C(F)(F)F)C(=S)O1 [Compound 1-58] | 4 (90%-99% herbicidal effect, phytotoxicity) | 4 (90%-99% herbicidal effect, phytotoxicity) | 4 (90%-99% herbicidal effect, phytotoxicity) | 4 (90%-99% herbicidal effect, phytotoxicity) | 4 (90%-99% herbicidal effect, phytotoxicity) |
| CC(C)COC(=O)N(c1ccccc1CN1CCC(C)(C)OC1=S)S(=O)(=O)C(F)(F)F [Compound 1-63] | 4 (90%-99% herbicidal effect, phytotoxicity) | 4 (90%-99% herbicidal effect, phytotoxicity) | 4 (90%-99% herbicidal effect, phytotoxicity) | 4 (90%-99% herbicidal effect, phytotoxicity) | 4 (90%-99% herbicidal effect, phytotoxicity) |
| CC(C)(C)COC(=O)N(c1ccccc1CN1CCC(C)(C)OC1=S)S(=O)(=O)C(F)(F)F [Compound 1-64] | 4 (90%-99% herbicidal effect, phytotoxicity) | 4 (90%-99% herbicidal effect, phytotoxicity) | 4 (90%-99% herbicidal effect, phytotoxicity) | 4 (90%-99% herbicidal effect, phytotoxicity) | 4 (90%-99% herbicidal effect, phytotoxicity) |
| CCC1(C)CCN(Cc2ccccc2NS(=O)(=O)C(F)(F)F)C(=O)O1 (stereo not drawn) [Compound 1-69] | 4 (90%-99% herbicidal effect, phytotoxicity) | 4 (90%-99% herbicidal effect, phytotoxicity) | 4 (90%-99% herbicidal effect, phytotoxicity) | 4 (90%-99% herbicidal effect, phytotoxicity) | 4 (90%-99% herbicidal effect, phytotoxicity) |
| CCOC(=O)N(c1ccccc1CN1CCC(C)(CC)OC1=O)S(=O)(=O)C(F)(F)F (stereo not drawn) [Compound 1-71] | 4 (90%-99% herbicidal effect, phytotoxicity) | 4 (90%-99% herbicidal effect, phytotoxicity) | 4 (90%-99% herbicidal effect, phytotoxicity) | 4 (90%-99% herbicidal effect, phytotoxicity) | 4 (90%-99% herbicidal effect, phytotoxicity) |
| CCC1(C)CCN(Cc2ccccc2N(C(=O)OCC(C)C)S(=O)(=O)C(F)(F)F)C(=O)O1 (stereo not drawn) [Compound 1-74] | 4 (90%-99% herbicidal effect, phytotoxicity) | 4 (90%-99% herbicidal effect, phytotoxicity) | 4 (90%-99% herbicidal effect, phytotoxicity) | 4 (90%-99% herbicidal effect, phytotoxicity) | 4 (90%-99% herbicidal effect, phytotoxicity) |
| CCC1(C)CCN(Cc2ccccc2N(C(=O)OCC(C)(C)C)S(=O)(=O)C(F)(F)F)C(=O)O1 (stereo not drawn) [Compound 1-75] | 4 (90%-99% herbicidal effect, phytotoxicity) | 4 (90%-99% herbicidal effect, phytotoxicity) | 4 (90%-99% herbicidal effect, phytotoxicity) | 4 (90%-99% herbicidal effect, phytotoxicity) | 4 (90%-99% herbicidal effect, phytotoxicity) |
| COC(=O)N(c1ccccc1CN1CCC(C)(C(F)(F)F)OC1=O)S(=O)(=O)C(F)(F)F (stereo not drawn) [Compound 1-81] | 5 (100% herbicidal effect, phytotoxicity) | 4 (90%-99% herbicidal effect, phytotoxicity) | 4 (90%-99% herbicidal effect, phytotoxicity) | 5 (100% herbicidal effect, phytotoxicity) | 4 (90%-99% herbicidal effect, phytotoxicity) |
